Legend:
MASL1 [1] = target: T1, MASL1 (Homo sapiens, UniProt Q9Y4C4); assay: size exclusion chromatography of lysate, shift between HMW and LMW complex, dot blot; type: biochemical; settings: 200 µM GDP in HEK293T lysate and mobile phase, pH 7.5; indirect read-out of binding, K422A used as control
T1 construct: gene MFHAS1; overexpressed in HEK293T, clarified lysate; plasmid from Genecopoeia
T1 sequence (Q9Y4C4 2-1052): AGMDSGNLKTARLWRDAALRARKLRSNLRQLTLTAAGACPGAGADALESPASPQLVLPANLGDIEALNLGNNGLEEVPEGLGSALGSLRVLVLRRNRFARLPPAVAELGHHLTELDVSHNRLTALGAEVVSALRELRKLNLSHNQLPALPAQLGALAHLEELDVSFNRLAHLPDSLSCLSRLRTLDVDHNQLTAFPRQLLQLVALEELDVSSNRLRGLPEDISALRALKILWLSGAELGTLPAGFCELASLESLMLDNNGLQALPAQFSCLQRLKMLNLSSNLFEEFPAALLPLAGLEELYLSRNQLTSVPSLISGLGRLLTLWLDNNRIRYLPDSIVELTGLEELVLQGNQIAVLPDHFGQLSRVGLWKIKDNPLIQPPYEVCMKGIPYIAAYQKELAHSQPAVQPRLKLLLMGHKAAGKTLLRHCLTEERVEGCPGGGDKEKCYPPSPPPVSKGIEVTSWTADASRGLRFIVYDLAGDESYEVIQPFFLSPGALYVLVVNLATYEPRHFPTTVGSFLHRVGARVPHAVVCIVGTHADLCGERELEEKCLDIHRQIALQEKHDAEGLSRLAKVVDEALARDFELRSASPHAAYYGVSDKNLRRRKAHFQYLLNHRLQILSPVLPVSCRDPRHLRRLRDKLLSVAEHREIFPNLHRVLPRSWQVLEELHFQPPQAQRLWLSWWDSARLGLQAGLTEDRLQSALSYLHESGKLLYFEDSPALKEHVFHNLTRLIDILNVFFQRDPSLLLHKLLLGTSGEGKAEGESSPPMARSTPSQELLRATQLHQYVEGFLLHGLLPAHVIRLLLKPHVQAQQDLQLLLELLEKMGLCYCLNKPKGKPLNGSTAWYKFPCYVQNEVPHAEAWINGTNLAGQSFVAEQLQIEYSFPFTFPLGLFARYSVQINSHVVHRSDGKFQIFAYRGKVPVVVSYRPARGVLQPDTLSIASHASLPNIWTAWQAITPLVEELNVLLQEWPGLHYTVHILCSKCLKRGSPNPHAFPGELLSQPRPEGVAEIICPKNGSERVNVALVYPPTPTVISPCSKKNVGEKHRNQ

MASL1 [2] = target: T1, MASL1; assay: pulldown on GTP-sepharose beads, competition with free GTP, immunoblot; type: binding; settings: clarified HEK293T lysate, 4 °C, 2 h; free GTP 10 mM; immobilised GTP; ROC domain site

## Nc1nc2c(ncn2[C@@H]2O[C@H](COP(=O)(O)OP(=O)(O)O)[C@@H](O)[C@H]2O)c(=O)[nH]1 [GDP]
MASL1 [1]
  size exclusion chromatography of lysate, shift between HMW and LMW complex, dot: GDP shifted the equilibrium between LMW and HMW complex towards the latter

## Nc1nc2c(ncn2[C@@H]2O[C@H](COP(=O)(O)OP(=O)(O)OP(=O)(O)O)[C@@H](O)[C@H]2O)c(=O)[nH]1 [GTP]
MASL1 [2]
  pulldown on GTP-sepharose beads, competition with free GTP, immunoblot: Wild type HA-tagged MASL1 was able to bind GTP immobilized on sepharose beads

— article PMC3995007, “GTP binding controls complex formation by the human ROCO protein MASL1” (The Febs Journal, 2013)
